Results from patent US20090093454A1, “Chemical Compounds” (priority 2005, published 2009).
Structures can show the parent of a compound that is named as a salt. Where two headings read alike, the source gives them in different places.

What was measured:
HIV-1 IIIB = experiment: HOS HIV-1 infectivity assay, IIIB strain; format: cell-based; conditions: 96 h
Method: (§1) Compounds were profiled against two HIV-1 viruses, the M-tropic (CCR5 utilizing) Ba-L strain and the T-tropic (CXCR4 utilizing) IIIB strain. Both viruses were propagated in human peripheral blood lymphocytes. Compounds were tested for there ability to block infection of the HOS cell line (expressing hCXCR4/hCCR5/hCD4/pHIV-LTR-luciferase) by either HIV-1 Ba-L or HIV-1, IIIB. Compound cytotoxicity was also examined in the absence of virus addition.
(§2) HOS cells (expressing hCXCR4/hCCR5/hCD4/pHIV-LTR-luciferase) were harvested and diluted in Dulbeccos modified Eagles media supplemented with 2% FCS and non-essential amino acid to a concentration of 60,000 cells/ml. The cells were plated into 96-well plates (100 ul per well) and the plates were placed in a tissue culture incubator (37° C.; 5% CO2/95% air) for a period of 24 h.
(§3) Subsequently, 50 ul of the desired drug solution (4 times the final concentration) was added to each well and the plates were returned to the tissue culture incubator (37° C.; 5% CO2/95% air) for 1 h. Following this incubation 50 ul of diluted virus was added to each well (approximately 2 million RLU per well of virus). The plates were returned to the tissue culture incubator (37° C.; 5% CO2/95% air) and were incubated for a further 96 h.
(§4) Following this incubation the endpoint for the virally infected cultures was quantified following addition of Steady-Glo Luciferase assay system reagent (Promega, Madison, Wis.). Cell viability or non-infected cultures was measured using a CellTiter-Glo luminescent cell viability assay system (Promega, Madison, Wis.). All luminescent readouts are performed on a Topcount luminescence detector (Packard, Meridien, Conn.).
as §1, with “Ba-L was” for “Both viruses were”, “either peripheral blood lymphocytes or SupT1/CCR5+/CXCR4+ cells. IIIB was propagated in” for “human”, “their” for “there”
as §2, with “FCS” for “FCS and non-essential amino acid”, “120,000” for “60,000”, “(50 μl” for “(100 ul”, “(370°” for “(37°”
(§5) Subsequently, 50 μl of the desired drug solution (2 times the final concentration) was added to each well and the plates were returned to the tissue culture incubator (370° C.; 5% CO2/95% air) for 1 h. Following this incubation, 60 μl of diluted virus (4 times the final concentration) was added to 60 μl of 2× the final desired concentration of the compound and 100 μl of this compound/virus mix was added to each well (approximately 2 million RLU per well of virus). The plates were returned to the tissue culture incubator (370° C.; 5% CO2/95% air) and were incubated for a further 96 h.

[1] = Compound cytotoxicity in absence of virus (CellTiter-Glo); format: cell-based; conditions: human
Method: as §1, §2, §3, §4
as §1, with “Ba-L was” for “Both viruses were”, “either peripheral blood lymphocytes or SupT1/CCR5+/CXCR4+ cells. IIIB was propagated in” for “human”, “their” for “there”
as §2, with “FCS” for “FCS and non-essential amino acid”, “120,000” for “60,000”, “(50 μl” for “(100 ul”, “(370°” for “(37°”
as §5

[2] = Human immunodeficiency virus 1, IIIB, HOS, read-out: HOS (3B) (μM)
[3] = Human immunodeficiency virus 1, T-tropic (CXCR4 utilizing) IIIB strain, HOS cells, luciferase, read-out: HOS (3B)
[4] = HOS cells, no virus added, cell viability, read-out: Cytotox (pIC50) (converted)

| Structure (SMILES) | IC50 (HIV-1 IIIB; [2]) [µM] | IC50 at 96 h [1] [nM] | IC50 (HIV-1 IIIB; [3]) [µM] | IC50 at 96 h [1, 4] [nM] |
| --- | --- | --- | --- | --- |
| c1cnc2c(c1)CC[C@H]1CCCN(Cc3nc4ccccc4[nH]3)[C@H]21 (racemic) [Example 6, (trans)-1-(1H-Benzimidazol-2-ylmethyl)-1,2,3,4,4a,5,6,10b-octahydro-1,10-phenanthroline] | 0.47 | 31600 | – | – |
| c1cnc2c(c1)CC[C@@H]1CCCN(Cc3nc4ccccc4[nH]3)[C@H]21 (racemic) [Example 7, (cis)-1-(1H-Benzimidazol-2-ylmethyl)-1,2,3,4,4a,5,6,10b-octahydro-1,10-phenanthroline] | 1 | > 100000 | – | – |
| NCCCn1c(CN2CCC[C@@H]3CCc4cccnc4[C@H]32)nc2ccccc21 (racemic) [Example 8, (trans)-3-[2-(3,4,4a,5,6,10b-Hexahydro-1,10-phenanthrolin-1(2H)-ylmethyl)-1H-benzimidazol-1-yl]-1-propanamine] | – | – | 0.22 | > 100000 |
| NCCCn1c(CN2CCC[C@H]3CCc4cccnc4[C@H]32)nc2ccccc21 (racemic) [Example 9, (cis)-3-[2-(3,4,4a,5,6,10b-Hexahydro-1,10-phenanthrolin-1(2H)-ylmethyl)-1H-benzimidazol-1-yl]-1-propanamine] | – | – | 0.073 | 28800 |
| c1cnc2c(c1)CC[C@@H]1CCCN(Cc3nc4ccccc4n3Cc3ccncc3)[C@H]21 (racemic) [Example 12, (cis)-1-{[1-(4-Pyridinylmethyl)-1H-benzimidazol-2-yl]methyl}-1,2,3,4,4a,5,6,10b-octahydro-1,10-phenanthroline] | – | – | 0.77 | > 100000 |
| CN1CCCC(Cn2c(CN3CCC[C@H]4CCc5cccnc5[C@H]43)nc3ccccc32)C1 (mixture of isomers) [Example 13, (cis)-1-({1-[(1-Methyl-3-piperidinyl)methyl]-1H-benzimidazol-2-yl}methyl)-1,2,3,4,4a,5,6,10b-octahydro-1,10-phenanthroline] | – | – | 0.05 | > 100000 |
| CN1CCN(c2cccc3nc(CN4CCC[C@@H]5CCc6cccnc6[C@H]54)cn23)CC1 (racemic) [Example 15A, (trans)-1-{[5-(4-Methyl-1-piperazinyl)imidazo[1,2-a]pyridin-2-yl]methyl}-1,2,3,4,4a,5,6,10b-octahydro-1,10-phenanthroline] | – | – | 0.033 | > 100000 |
| CN1CCN(c2cccc3nc(CN4CCC[C@H]5CCc6cccnc6[C@H]54)cn23)CC1 (racemic) [Example 15B, (cis)-1-{[5-(4-Methyl-1-piperazinyl)imidazo[1,2-a]pyridin-2-yl]methyl}-1,2,3,4,4a,5,6,10b-octahydro-1,10-phenanthroline] | – | – | 0.004 | > 100000 |
| CN1CCN(c2cccc3[nH]c(CN4CCC[C@@H]5CCc6cccnc6[C@H]54)nc23)CC1 (racemic) [Example 32, (trans)-1-{[4-(4-Methyl-1-piperazinyl)-1H-benzimidazol-2-yl]methyl}-1,2,3,4,4a,5,6,10b-octahydro-1,10-phenanthroline trifluoroacetate] | – | – | 0.26 | > 10000 |
| CN1CCN(c2cccc3nc(CN4CCC[C@H]5CCc6cccnc6[C@H]54)[nH]c23)CC1 (racemic) [Example 33, (cis)-1-{[4-(4-Methyl-1-piperazinyl)-1H-benzimidazol-2-yl]methyl}-1,2,3,4,4a,5,6,10b-octahydro-1,10-phenanthroline] | – | – | 0.0035 | 37200 |
| CN(C)CCCn1c(CN2CCC[C@H]3CCc4cccnc4[C@@H]32)nc2ccccc21 (stereo in doubt) [Example 10A, (3-{2-[(4aR,10bR)-3,4,4a,5,6,10b-Hexahydro-1,10-phenanthrolin-1(2H)-ylmethyl]-1H-benzimidazol-1-yl}propyl)dimethylamine] | – | – | 0.33 | > 100000 |
| CN(C)CCCn1c(CN2CCC[C@@H]3CCc4cccnc4[C@H]32)nc2ccccc21 (stereo in doubt) [Example 10B, (3-{2-[(4aS,10bS)-3,4,4a,5,6,10b-Hexahydro-1,10-phenanthrolin-1(2H)-ylmethyl]-1H-benzimidazol-1-yl}propyl)dimethylamine] | – | – | 0.14 | > 100000 |
| CN(C)CCCn1c(CN2CCC[C@@H]3CCc4cccnc4[C@@H]32)nc2ccccc21 [Example 11A, (3-{2-[(4aS,10bR)-3,4,4a,5,6,10b-Hexahydro-1,10-phenanthrolin-1(2H)-ylmethyl]-1H-benzimidazol-1-yl}propyl)dimethylamine] | – | – | 0.53 | > 100000 |
| CN(C)CCCn1c(CN2CCC[C@H]3CCc4cccnc4[C@H]32)nc2ccccc21 [Example 11B, (3-{2-[(4aR,10bS)-3,4,4a,5,6,10b-Hexahydro-1,10-phenanthrolin-1(2H)-ylmethyl]-1H-benzimidazol-1-yl}propyl)dimethylamine] | – | – | 0.035 | > 100000 |
| CN1CCN(c2cccc3nc(CN4CCC[C@@H]5CCc6cccnc6[C@@H]54)cn23)CC1 [Example 22, (4aS,10bR)-1-{[5-(4-Methyl-1-piperazinyl)imidazo[1,2-a]pyridin-2-yl]methyl}-1,2,3,4,4a,5,6,10b-octahydro-1,10-phenanthroline] | – | – | 0.1 | > 100000 |
| CN1CCN(c2cccc3nc(CN4CCC[C@H]5CCc6cccnc6[C@H]54)cn23)CC1 [Example 27, (4aR,10bS)-1-{[5-(4-Methyl-1-piperazinyl)imidazo[1,2-a]pyridin-2-yl]methyl}-1,2,3,4,4a,5,6,10b-octahydro-1,10-phenanthroline] | – | – | 0.004 | > 10000 |
